# ChEMBL document CHEMBL1201862, “PubChem BioAssay data set” (2004)
# Activity calls are given as the source filed them.
# Experiments:
# HEK293 [1] = assay: cells; details: Homo sapiens
# [2] = target: T1, Heat shock factor protein 1 (Mus musculus, UniProt P38532); assay: HSF1 potentiators in luciferase reporter cells, confirmation, cell-based, NIH3T3, luminescence, dose retest (AID 435004); assay type: functional;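 note: stress induced by proteasome inhibitor MG132 added 30 min after compound; luciferase reporter driven by HSF1 response element in NIH3T3 cells; actives raise luminescence as potentiators of the MG132 stress response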
# T1 sequence (P38532 whole entry): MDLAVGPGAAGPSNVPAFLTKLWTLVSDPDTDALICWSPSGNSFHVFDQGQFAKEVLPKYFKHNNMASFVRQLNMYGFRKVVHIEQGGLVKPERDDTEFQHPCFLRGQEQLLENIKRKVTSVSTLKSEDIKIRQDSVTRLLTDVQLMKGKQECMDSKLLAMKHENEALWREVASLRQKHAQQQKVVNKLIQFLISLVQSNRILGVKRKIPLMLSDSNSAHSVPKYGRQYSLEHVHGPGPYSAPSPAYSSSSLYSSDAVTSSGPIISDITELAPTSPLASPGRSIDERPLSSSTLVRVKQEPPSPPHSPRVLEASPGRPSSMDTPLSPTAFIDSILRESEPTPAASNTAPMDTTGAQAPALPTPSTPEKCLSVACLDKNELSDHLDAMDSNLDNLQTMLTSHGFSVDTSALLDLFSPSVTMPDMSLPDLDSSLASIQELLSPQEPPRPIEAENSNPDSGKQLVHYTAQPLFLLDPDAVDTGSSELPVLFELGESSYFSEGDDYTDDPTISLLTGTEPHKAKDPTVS
# HEK293 [3] = assay: cells; details: Homo sapiens; remark: listed apart in the source
# [4] = Luminescence Cell-Based Dose Retest to Confirm Inhibitors of Cancer Stem Cells. [Related pubchem assays (depositor defined):AID2717, AID2721]; assay type: functional; details: Homo sapiens
# Vero [5] = assay: cells; assay type: functional; details: Chlorocebus sabaeus
# [6] = target: Induced myeloid leukemia cell differentiation protein Mcl-1 (Homo sapiens, UniProt Q07820); assay type: functional
# Sequence of Induced myeloid leukemia cell differentiation protein Mcl-1 (Q07820 whole entry): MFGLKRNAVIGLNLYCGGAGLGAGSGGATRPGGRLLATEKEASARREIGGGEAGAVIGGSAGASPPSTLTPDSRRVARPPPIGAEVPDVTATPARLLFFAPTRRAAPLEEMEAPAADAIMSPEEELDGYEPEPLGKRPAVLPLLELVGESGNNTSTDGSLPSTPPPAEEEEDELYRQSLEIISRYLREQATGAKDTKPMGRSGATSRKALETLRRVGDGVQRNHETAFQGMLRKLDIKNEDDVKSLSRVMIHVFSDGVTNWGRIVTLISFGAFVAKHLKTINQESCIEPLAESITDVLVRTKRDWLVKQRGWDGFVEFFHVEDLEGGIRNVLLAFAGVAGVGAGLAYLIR
# Vero [7] = assay: cells; assay type: functional, cell-based; details: Chlorocebus sabaeus
# INS1 = assay: beta cell apoptosis inhibitors, cytokine rescue, dose response, luminescence, retest (AID 449756); assay type: functional, cell-based; details: Rattus norvegicus;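 note: cell death triggered by IL-1 beta plus TNF-alpha plus IFN-gamma mixture; protective hits raise ATP signal compared with cytokine alone wells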
# CAAX prenyl protease 2 = target: T2, CAAX prenyl protease 2 (Saccharomyces cerevisiae S288c, UniProt Q03530); assay type: biochemical
# T2 sequence (Q03530 whole entry): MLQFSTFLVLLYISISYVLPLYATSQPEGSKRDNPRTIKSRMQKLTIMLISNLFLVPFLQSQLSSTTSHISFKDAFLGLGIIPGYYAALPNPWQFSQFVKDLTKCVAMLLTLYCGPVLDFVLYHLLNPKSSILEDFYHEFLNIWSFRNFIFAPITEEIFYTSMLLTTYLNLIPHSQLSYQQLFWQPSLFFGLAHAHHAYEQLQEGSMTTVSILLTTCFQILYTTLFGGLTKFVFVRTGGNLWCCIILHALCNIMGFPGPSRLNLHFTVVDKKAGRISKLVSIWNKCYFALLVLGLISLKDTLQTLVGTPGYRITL
# Escherichia coli = assay: microbe, parasite or virus in culture
# SUMO-activating enzyme = SUMO-activating enzyme (Homo sapiens, UniProt Q9UBT2); assay: SUMOylation inhibitor hit validation, confirmation, SUMOylation inhibitor project, biochemical, AlphaScreen (AID 2018); assay type: functional
# Sequence of SUMO-activating enzyme (Q9UBE0 whole entry): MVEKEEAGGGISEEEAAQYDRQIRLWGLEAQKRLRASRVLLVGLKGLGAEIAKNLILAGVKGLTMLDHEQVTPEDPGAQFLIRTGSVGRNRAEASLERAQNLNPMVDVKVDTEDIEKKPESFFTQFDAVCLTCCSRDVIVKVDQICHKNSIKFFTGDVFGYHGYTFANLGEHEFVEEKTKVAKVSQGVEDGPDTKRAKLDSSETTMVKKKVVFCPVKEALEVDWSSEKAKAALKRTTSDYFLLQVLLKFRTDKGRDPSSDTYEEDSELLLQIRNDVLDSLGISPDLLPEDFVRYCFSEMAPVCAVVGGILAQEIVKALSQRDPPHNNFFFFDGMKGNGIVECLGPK
# Sequence of SUMO-activating enzyme (Q9UBT2 whole entry): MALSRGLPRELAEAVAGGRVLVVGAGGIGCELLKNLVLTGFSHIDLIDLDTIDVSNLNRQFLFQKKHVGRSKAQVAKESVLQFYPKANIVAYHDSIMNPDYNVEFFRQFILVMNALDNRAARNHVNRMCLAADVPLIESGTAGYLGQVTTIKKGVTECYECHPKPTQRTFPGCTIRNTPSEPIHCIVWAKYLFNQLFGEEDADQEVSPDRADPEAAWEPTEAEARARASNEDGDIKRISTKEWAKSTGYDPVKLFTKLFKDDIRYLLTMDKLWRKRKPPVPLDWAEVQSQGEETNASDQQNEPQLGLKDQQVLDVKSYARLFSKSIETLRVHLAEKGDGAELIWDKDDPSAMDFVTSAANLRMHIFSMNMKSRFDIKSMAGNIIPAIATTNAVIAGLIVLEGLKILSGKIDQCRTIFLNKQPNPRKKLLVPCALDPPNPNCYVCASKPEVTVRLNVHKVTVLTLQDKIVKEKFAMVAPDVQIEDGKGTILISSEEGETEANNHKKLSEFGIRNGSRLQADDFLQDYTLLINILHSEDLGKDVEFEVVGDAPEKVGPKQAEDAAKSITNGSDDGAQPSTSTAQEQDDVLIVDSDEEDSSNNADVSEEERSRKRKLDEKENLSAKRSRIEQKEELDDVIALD
# [8] = THP-1 cell cytotoxicity, dose response, cytotoxicity control for non-replicating M. tuberculosis project (AID 489025); assay type: functional
# [9] = Vero E6 cell cytotoxicity, dose response, cytotoxicity control for non-replicating M. tuberculosis project, secondary assay (AID 492998); assay type: functional, VeroE6; details: Vero C1008
# cells = assay type: functional
compound,measurement,setting,value
Sc1nnc(-c2cc(-c3ccccc3)[nH]n2)n1/N=C/C(Br)=C/c1ccccc1,EC50,HEK293 [1],> 59.6 µM (inactive)
same,EC50,[2],2.65 µM (inconclusive)
same,EC50,HEK293 [3],> 59.6 µM (inactive)
same,AC50,[4],0.614 µM (active)
same,CC50,Vero [5],> 25 µM (active)
same,IC50,[6],4.97 µM (active)
same,IC50,Vero [7],6.87 µM (active)
same,AC50,INS1,9.04 µM (active)
Cc1ccc(-c2cc(C)nc3nc(N)nn23)cc1,AC50,CAAX prenyl protease 2,62.7 µM (active)
Cn1c(=O)oc2cc(S(=O)(=O)NCCN3CCCCCC3)ccc21,AC50,Escherichia coli,24.2 µM (active)
CCOC(=O)CSc1nc(N)c(C#N)c(-c2ccc(OCC)cc2)c1C#N,EC50,HEK293 [1],> 59.6 µM (inactive)
same,EC50,HEK293 [3],> 59.6 µM (inactive)
COc1ccc(Cc2n[nH]c(=S)n2NC(=O)Nc2ccc(C)cc2)cc1,IC50,SUMO-activating enzyme,> 100 µM (inactive)
O=C(NNC(=O)c1cnccn1)c1ccc(Cl)c(Cl)c1,CC50,[8],14.6 µM (active)
same,CC50,[9],12.5 µM (active)
same,IC50,cells,6.17 µM (active)
